Reference: US5286729A, “Angiotensin II receptor blocking 2,3,6 substituted quinazolinones” (American Cyanamid Company, priority 1993, dated 1994)
“And” between values parts separate entries of the source, which are not always exact repeats. Equal values may be shown once.

Test system: ANGIOTENSIN II (AII) VASOPRESSOR RESPONSE
Assay: AII Challenge: % inhibition (angiotensin blockage) of angiotensin II vasopressor response in conscious SHR
Format: in vivo, rat (Male Okamoto-Aoki SHR)
Details: for Response After AII / Change / Control Before AII: individual rats
From the text: By administering a compound of this invention to a rat, and then challenging with angiotensin II, a blockage of the vasopressor response is realized. The results of this test on representative compounds of this invention are shown in Table V. Conscious Male Okamoto-Aoki SHR, 16-20 weeks old, weighing approximately 330 g are purchased from Charles River Labs (Wilmington, MA). Conscious rats are restrained in a supine position with elastic tape. The area at the base of the tail is locally anesthetized by subcutaneous infiltration with 2% procaine. The central caudal artery and vein are isolated, and a cannula made of polyethylene (PE) 10-20 tubing (fused together by heat) is passed into the lower abdominal aorta and vena cava, respectively. The cannula is secured, heparinized (1,000 I.U./ml), sealed and the wound is closed. The animals are placed in plastic restraining cages in an upright position. The cannula is attached to a Statham P23Db pressure transducer, and pulsatile blood pressure is recorded to 10-15 minutes with a Gould Brush recorder. (Chan et al., (Drug Development Res., 18:75-94, 1989). Angiotensin II (human sequence, Sigma Chem. Co., St. Louis, MO) of 0.05 and 0.1 ug/kg i.v. is injected into all rats (predosing repsonse). Then a test compound, vehicle or a known angiotensin II antagonist is administered i.v., i.p. or orally to each set of rats. The two doses of angiotensin II are given to each rat again at 30, 60, 90, 120, 180, 240 and 300 minutes post dosing the compound or vehicle. The vasopressor response of angiotensin II is measured for the increase in systolic blood pressure in mmHg. The percentage of antagonism or blockade of the vasopressor response of angiotensin II by a compound is calculated using the vasopressor response (increase in systolic blood pressure) of angiotensin II of each rat predosing the compound as 100%. A compound is considered active if at 30 mg/kg i.v. it antagonized at least 50% of the response.

[1] = 5 mg/kg IV, AII 0.05 mcg/kg IV, 30 min post dose
[2] = 5 mg/kg IV, AII 0.05 mcg/kg IV, 30 min post dose, monohydrochloride
[3] = 5 mg/kg IV, AII 0.05 mcg/kg IV, 60 min post dose
[4] = 5 mg/kg IV, AII 0.05 mcg/kg IV, 60 min post dose, monohydrochloride
[5] = 5 mg/kg IV, AII 0.05 mcg/kg IV, 90 min post dose
[6] = 5 mg/kg IV, AII 0.05 mcg/kg IV, 90 min post dose, monohydrochloride
[7] = 5 mg/kg IV, AII 0.05 mcg/kg IV, 120 min post dose
[8] = 5 mg/kg IV, AII 0.05 mcg/kg IV, 120 min post dose, monohydrochloride
[9] = 5 mg/kg IV, AII 0.05 mcg/kg IV, 180 min post dose
[10] = 5 mg/kg IV, AII 0.05 mcg/kg IV, 180 min post dose, monohydrochloride
[11] = 5 mg/kg IV, AII 0.1 mcg/kg IV, 30 min post dose
[12] = 5 mg/kg IV, AII 0.1 mcg/kg IV, 30 min post dose, monohydrochloride
[13] = 5 mg/kg IV, AII 0.1 mcg/kg IV, 60 min post dose
[14] = 5 mg/kg IV, AII 0.1 mcg/kg IV, 60 min post dose, monohydrochloride
[15] = 5 mg/kg IV, AII 0.1 mcg/kg IV, 90 min post dose
[16] = 5 mg/kg IV, AII 0.1 mcg/kg IV, 90 min post dose, monohydrochloride
[17] = 5 mg/kg IV, AII 0.1 mcg/kg IV, 120 min post dose
[18] = 5 mg/kg IV, AII 0.1 mcg/kg IV, 120 min post dose, monohydrochloride
[19] = 5 mg/kg IV, AII 0.1 mcg/kg IV, 180 min post dose
[20] = 5 mg/kg IV, AII 0.1 mcg/kg IV, 180 min post dose, monohydrochloride
[21] = 10 mg/kg P.O., AII 0.05 mcg/kg IV, 30 min post dose
[22] = 10 mg/kg P.O., AII 0.05 mcg/kg IV, 30 min post dose, monohydrochloride
[23] = 10 mg/kg P.O., AII 0.05 mcg/kg IV, 60 min post dose
[24] = 10 mg/kg P.O., AII 0.05 mcg/kg IV, 60 min post dose, monohydrochloride
[25] = 10 mg/kg P.O., AII 0.05 mcg/kg IV, 90 min post dose
[26] = 10 mg/kg P.O., AII 0.05 mcg/kg IV, 90 min post dose, monohydrochloride
[27] = 10 mg/kg P.O., AII 0.05 mcg/kg IV, 120 min post dose
[28] = 10 mg/kg P.O., AII 0.05 mcg/kg IV, 120 min post dose, monohydrochloride
[29] = 10 mg/kg P.O., AII 0.05 mcg/kg IV, 180 min post dose
[30] = 10 mg/kg P.O., AII 0.05 mcg/kg IV, 180 min post dose, monohydrochloride
[31] = 10 mg/kg P.O., AII 0.1 mcg/kg IV, 30 min post dose
[32] = 10 mg/kg P.O., AII 0.1 mcg/kg IV, 30 min post dose, monohydrochloride
[33] = 10 mg/kg P.O., AII 0.1 mcg/kg IV, 60 min post dose
[34] = 10 mg/kg P.O., AII 0.1 mcg/kg IV, 90 min post dose
[35] = 10 mg/kg P.O., AII 0.1 mcg/kg IV, 120 min post dose
[36] = 10 mg/kg P.O., AII 0.1 mcg/kg IV, 120 min post dose, monohydrochloride
[37] = 10 mg/kg P.O., AII 0.1 mcg/kg IV, 180 min post dose
[38] = 10 mg/kg P.O., AII 0.1 mcg/kg IV, 180 min post dose, monohydrochloride

CCCCc1nc2ccc(COc3ccccn3)cc2c(=O)n1Cc1ccc(-c2ccccc2-c2nnn[nH]2)cc1.Cl [Example 12, 2-Butyl-6-[(2-pyridinyloxy)methyl]-3-[[2'-(1H-tetrazol-5-yl)[1,1'-biphenyl]-4-yl]methyl]-4(3H)-quinazolinone monohydrochloride]
% Inhibition [1]: 62% | Average Change [1]: 12.5 mmHg | Response After AII [1]: 195 mmHg | Change [2]: 10 mmHg and 15 mmHg | Control Before AII [2]: 185 mmHg and 180 mmHg | % Inhibition [3]: 92% | Average Change [3]: 2.5 mmHg | Control Before AII [3]: 175 mmHg | Response After AII [3]: 180 mmHg | Change [4]: 0 mmHg and 5 mmHg | Response After AII [4]: 175 mmHg | % Inhibition [5]: 69% | Average Change [5]: 10 mmHg | Change [5]: 10 mmHg | Response After AII [5]: 170 mmHg | Control Before AII [6]: 160 mmHg and 165 mmHg | Response After AII [6]: 175 mmHg | % Inhibition [7]: 77% | Average Change [7]: 7.5 mmHg | Control Before AII [7]: 165 mmHg | Response After AII [7]: 170 mmHg | Change [8]: 10 mmHg and 5 mmHg | Response After AII [8]: 175 mmHg | % Inhibition [9]: 66% | Average Change [9]: 11 mmHg | Change [10]: 7 mmHg and 15 mmHg | Control Before AII [10]: 165 mmHg and 155 mmHg | Response After AII [10]: 172 mmHg and 170 mmHg | % Inhibition [11]: 65% | Average Change [11]: 15 mmHg | Control Before AII [11]: 185 mmHg | Response After AII [11]: 195 mmHg | Change [12]: 10 mmHg and 20 mmHg | Control Before AII [12]: 175 mmHg | % Inhibition [13]: 71% | Average Change [13]: 12.5 mmHg | Response After AII [13]: 185 mmHg | Change [14]: 15 mmHg and 10 mmHg | Control Before AII [14]: 170 mmHg and 175 mmHg | % Inhibition [15]: 76% | Average Change [15]: 10 mmHg | Change [15]: 10 mmHg | Control Before AII [16]: 160 mmHg and 170 mmHg | Response After AII [16]: 170 mmHg and 180 mmHg | % Inhibition [17]: 65% | Average Change [17]: 15 mmHg | Control Before AII [17]: 165 mmHg | Change [18]: 20 mmHg and 10 mmHg | Response After AII [18]: 185 mmHg and 175 mmHg | % Inhibition [19]: 51% | Average Change [19]: 21 mmHg | Control Before AII [19]: 160 mmHg | Change [20]: 20 mmHg and 22 mmHg | Response After AII [20]: 180 mmHg and 182 mmHg | % Inhibition [21]: 56% | Average Change [21]: 17.5 mmHg | Control Before AII [21]: 185 mmHg | Response After AII [21]: 210 mmHg | Change [22]: 25 mmHg and 10 mmHg | Control Before AII [22]: 200 mmHg | % Inhibition [23]: 44% | Average Change [23]: 22.5 mmHg | Control Before AII [23]: 185 mmHg | Response After AII [23]: 220 mmHg | Change [24]: 25 mmHg and 20 mmHg | Control Before AII [24]: 195 mmHg | Response After AII [24]: 205 mmHg | % Inhibition [25]: 59% | Average Change [25]: 16.5 mmHg | Control Before AII [25]: 195 mmHg | Change [26]: 30 mmHg and 3 mmHg | Control Before AII [26]: 190 mmHg | Response After AII [26]: 220 mmHg and 198 mmHg | % Inhibition [27]: 69% | Average Change [27]: 12.5 mmHg | Control Before AII [27]: 210 mmHg | Response After AII [27]: 230 mmHg | Change [28]: 20 mmHg and 5 mmHg | Response After AII [28]: 215 mmHg | % Inhibition [29]: 50% | Average Change [29]: 20 mmHg | Control Before AII [29]: 185 mmHg | Change [30]: 25 mmHg and 15 mmHg | Response After AII [30]: 210 mmHg and 200 mmHg | % Inhibition [31]: 34% | Average Change [31]: 27.5 mmHg | Response After AII [31]: 220 mmHg | Change [32]: 35 mmHg and 20 mmHg | Control Before AII [32]: 185 mmHg and 200 mmHg | % Inhibition [33]: 16% | Average Change [33]: 35 mmHg | Change [33]: 35 mmHg | Control Before AII [33]: 185 mmHg | Response After AII [33]: 220 mmHg | % Inhibition [34]: 28% | Average Change [34]: 30 mmHg | Change [34]: 30 mmHg | Control Before AII [34]: 190 mmHg | Response After AII [34]: 220 mmHg | % Inhibition [35]: 52% | Average Change [35]: 20 mmHg | Control Before AII [35]: 205 mmHg | Response After AII [35]: 235 mmHg | Change [36]: 30 mmHg and 10 mmHg | Response After AII [36]: 215 mmHg | % Inhibition [37]: 40% | Average Change [37]: 25 mmHg | Response After AII [37]: 210 mmHg | Change [38]: 35 mmHg and 15 mmHg | Control Before AII [38]: 190 mmHg and 195 mmHg | Response After AII [38]: 225 mmHg
